The IC50 is the concentration needed to halve the response being measured.

For 22 molecules, IC50 results are on record in US9796704B2, “Substituted quinazolines as receptor-type kinase inhibitors” (Symphony Evolution, Inc., priority 2002, dated 2017).

Where two headings read alike, the source gives them in different places.

In one test the target is ErbB2 (Homo sapiens (Human), UniProt P04626). Put plainly: ErbB2 kinase inhibition, AlphaScreen. The test is classed as biochemical. On the procedure:
Kinase activity and compound inhibition are investigated using one or more of the three assay formats described below. The ATP concentrations are selected near its Michaelis-Menten constant (KM) for each individual kinase. Dose-response experiments are performed at ten different inhibitor concentrations in a 384-well plate format. […] These parameters are obtained by nonlinear regression algorithm built into ActivityBase software (available from ID Business Solutions Ltd., of Guildford, Surrey, UK). ^33P Phosphoryl Transfer Assay (Radiometric)

Another test deals with EphA2 (Homo sapiens (Human), UniProt P29317). Put plainly: EphA2 kinase inhibition, luciferase-coupled chemiluminescent assay (LCCA).
Chain of EphA2 (P29317 598-890): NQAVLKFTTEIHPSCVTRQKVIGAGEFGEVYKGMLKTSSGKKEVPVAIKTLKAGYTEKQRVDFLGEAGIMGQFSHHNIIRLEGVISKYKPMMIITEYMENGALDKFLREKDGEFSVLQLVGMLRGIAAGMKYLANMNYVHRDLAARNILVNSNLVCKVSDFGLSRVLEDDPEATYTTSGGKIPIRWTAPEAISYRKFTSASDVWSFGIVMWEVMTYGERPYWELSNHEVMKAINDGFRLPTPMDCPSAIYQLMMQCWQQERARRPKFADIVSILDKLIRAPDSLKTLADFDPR
The next test concerns the target KDR (Homo sapiens (Human), UniProt P35968). Put plainly: KDR kinase inhibition, luciferase-coupled chemiluminescent assay (LCCA).
Another test addresses EphB4 (Homo sapiens (Human), UniProt P54760). Put plainly: EphB4 kinase inhibition, 33P phosphoryl transfer assay (radiometric). Type of test: biochemical.
Another test addresses EGFR (Homo sapiens (Human), UniProt P00533). Put plainly: EGFR kinase inhibition, luciferase-coupled chemiluminescent assay (LCCA).

Chain of EphB4 (P54760 605-890): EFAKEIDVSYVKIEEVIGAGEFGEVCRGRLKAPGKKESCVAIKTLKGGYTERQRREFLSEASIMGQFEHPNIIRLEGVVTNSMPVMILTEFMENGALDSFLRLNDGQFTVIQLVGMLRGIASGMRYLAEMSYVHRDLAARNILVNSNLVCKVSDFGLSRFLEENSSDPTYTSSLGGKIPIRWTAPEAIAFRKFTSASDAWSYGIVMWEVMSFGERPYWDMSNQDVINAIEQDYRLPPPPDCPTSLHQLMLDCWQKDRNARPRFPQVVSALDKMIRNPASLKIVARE
Chain of KDR (P35968 807-1356): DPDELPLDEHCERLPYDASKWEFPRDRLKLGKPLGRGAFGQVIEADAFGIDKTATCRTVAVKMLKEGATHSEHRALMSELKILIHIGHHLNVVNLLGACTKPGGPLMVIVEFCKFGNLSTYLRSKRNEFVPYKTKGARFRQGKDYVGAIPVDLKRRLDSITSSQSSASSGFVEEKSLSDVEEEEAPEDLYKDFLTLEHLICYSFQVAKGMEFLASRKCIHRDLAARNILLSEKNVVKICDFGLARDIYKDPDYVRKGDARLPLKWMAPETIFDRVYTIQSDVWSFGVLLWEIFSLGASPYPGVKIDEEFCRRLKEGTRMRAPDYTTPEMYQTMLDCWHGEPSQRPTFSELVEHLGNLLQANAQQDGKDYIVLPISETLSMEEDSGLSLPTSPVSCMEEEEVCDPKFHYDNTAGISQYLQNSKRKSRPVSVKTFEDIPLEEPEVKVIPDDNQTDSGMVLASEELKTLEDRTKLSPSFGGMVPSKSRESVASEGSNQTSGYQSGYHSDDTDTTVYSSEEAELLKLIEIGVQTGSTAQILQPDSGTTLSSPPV

Turning to `COc1cc2c(Nc3ccc(Cl)c(Cl)c3)ncnc2cc1OCC1CN(C(=NC#N)N2CCCCC2)CCO1` (stereo in doubt) [Example 216, [(1E)-[2-({[4-[(3,4-dichlorophenyl)amino]-6-(methyloxy)quinazolin-7-yl]oxy}methyl)morpholin-4-yl](piperidin-1-yl)methylidene]cyanamide], the IC50 was less than 50 nM against ErbB2; 50 to 1000 nM on EphA2; 50 to 1000 nM on KDR; less than 50 nM against EphB4; less than 50 nM at EGFR.
Regarding `COc1cc2c(Nc3cc(Cl)c(Cl)cc3F)ncnc2cc1O[C@H]1CO[C@H]2[C@@H]1OC[C@@H]2OC` [Example 69, 1,4:3,6-dianhydro-2-O-[4-[(4,5-dichloro-2-fluorophenyl)amino]-6-(methyloxy)quinazolin-7-yl]-5-O-methyl-L-iditol], the IC50 at ErbB2, at EphA2 (read-out: EphA2 IC50), on KDR (read-out: KDR IC50), against EphB4 and at EGFR (read-out: EGFR IC50) was less than 50 nM throughout.
As for `COc1cc2c(Nc3ccc(Br)c(Cl)c3)ncnc2cc1O[C@H]1CO[C@@H]2CCO[C@H]12` [Example 77, 1,4:3,6-dianhydro-2-O-[4-[(4-bromo-3-chlorophenyl)amino]-6-(methyloxy)quinazolin-7-yl]-5-deoxy-D-xylo-hexitol], the IC50 at ErbB2 is less than 50 nM; at EphA2 (read-out: EphA2 IC50), 50 to 1000 nM; against EphB4 it was less than 50 nM; on EGFR (read-out: EGFR IC50) it was less than 50 nM.
Turning to `COc1cc2c(Nc3ccc(Cl)c(Cl)c3)ncnc2cc1O[C@@H]1CO[C@@H]2[C@H]1OC[C@H]2F` [Example 119, 1,4:3,6-dianhydro-2-deoxy-5-O-[4-[(3,4-dichlorophenyl)amino]-6-(methyloxy)quinazolin-7-yl]-2-fluoro-D-iditol], the IC50 on ErbB2, at EphA2 (read-out: EphA2 IC50), on KDR (read-out: KDR IC50), against EphB4 and at EGFR (read-out: EGFR IC50) was less than 50 nM throughout.
For the molecule `COc1cc2c(Nc3ccc(Cl)c(Cl)c3)ncnc2cc1OCc1noc(C2CCCCN2C)n1` (stereo not drawn) [Example 154, N-(3,4-dichlorophenyl)-6-(methyloxy)-7-({[5-(1-methylpiperidin-2-yl)-1,2,4-oxadiazol-3-yl]methyl}oxy)quinazolin-4-amine], the IC50 against ErbB2, at EphB4 and at EGFR (read-out: EGFR IC50) was less than 50 nM throughout.
`COc1cc2c(Nc3ccc(Cl)c(Cl)c3)ncnc2cc1OCc1cc(C)on1` [Example 160, N-(3,4-dichlorophenyl)-7-{[(5-methylisoxazol-3-yl)methyl]oxy}-6-(methyloxy)quinazolin-4-amine]: the IC50 against ErbB2, against EphB4 and at EGFR (read-out: EGFR IC50) was less than 50 nM each time.
For `COc1cc2c(Nc3ccc(Cl)c(Cl)c3)ncnc2cc1OCc1ccc2nonc2c1` [Example 163, 7-[(2,1,3-benzoxadiazol-5-ylmethyl)oxy]-N-(3,4-dichlorophenyl)-6-(methyloxy)quinazolin-4-amine], the IC50 at ErbB2, against EphB4 and on EGFR (read-out: EGFR IC50) was less than 50 nM in each case.
Turning to `COc1cc2c(Nc3ccc(Cl)c(Cl)c3)ncnc2cc1OCc1noc(-c2ccc(C(F)(F)F)cc2)n1` [Example 167, N-(3,4-dichlorophenyl)-6-(methyloxy)-7-[({5-[4-(trifluoromethyl)phenyl]-1,2,4-oxadiazol-3-yl}methyl)oxy]quinazolin-4-amine], the IC50 on ErbB2, at EphA2 (read-out: EphA2 IC50), against EphB4 and on EGFR (read-out: EGFR IC50) was less than 50 nM each time.
For the molecule `COc1cc2c(Nc3ccc(Cl)c(Cl)c3)ncnc2cc1OCc1cscn1` [Example 170, N-(3,4-dichlorophenyl)-6-(methyloxy)-7-[(1,3-thiazol-4-ylmethyl)oxy]quinazolin-4-amine], the IC50 on ErbB2, at EphA2 (read-out: EphA2 IC50), against EphB4 and on EGFR (read-out: EGFR IC50) was less than 50 nM each time.
Take `COc1cc2c(Nc3ccc(Cl)c(Cl)c3)ncnc2cc1OCc1c(-c2ccccc2)nn(C)c1Cl` [Example 175, 7-{[(5-chloro-1-methyl-3-phenyl-1H-pyrazol-4-yl)methyl]oxy}-N-(3,4-dichlorophenyl)-6-(methyloxy)quinazolin-4-amine]: the IC50 against ErbB2, on EphB4 and on EGFR (read-out: EGFR IC50) was less than 50 nM each time.
As to `COc1cc2c(Nc3ccc(Cl)c(Cl)c3)ncnc2cc1OCC1CCCO1` (stereo not drawn) [Example 183, N-(3,4-dichlorophenyl)-6-(methyloxy)-7-[(tetrahydrofuran-2-ylmethyl)oxy]quinazolin-4-amine], the IC50 at ErbB2 is less than 50 nM; on EphA2 (read-out: EphA2 IC50) it was 50 to 1000 nM; at EphB4, less than 50 nM; at EGFR (read-out: EGFR IC50) it was less than 50 nM.
For the molecule `COc1cc2c(Nc3ccc(Cl)c(Cl)c3)ncnc2cc1OCC1CCC1` [Example 187, 7-[(cyclobutylmethyl)oxy]-N-(3,4-dichlorophenyl)-6-(methyloxy)quinazolin-4-amine], the half-inhibitory concentration (IC50) against ErbB2 is less than 50 nM; at EphA2 (read-out: EphA2 IC50), 50 to 1000 nM; on EphB4 it was less than 50 nM; at EGFR (read-out: EGFR IC50) it was less than 50 nM.
`COc1cc2c(Nc3ccc(Cl)c(Cl)c3)ncnc2cc1OCc1nc(-c2ccccn2)cs1` [Example 202, N-(3,4-dichlorophenyl)-6-(methyloxy)-7-{[(4-pyridin-2-yl-1,3-thiazol-2-yl)methyl]oxy}quinazolin-4-amine]: the IC50 at ErbB2 is less than 50 nM; at EphA2 (read-out: EphA2 IC50) it was 50 to 1000 nM; on EphB4 it was less than 50 nM; at EGFR (read-out: EGFR IC50) it was less than 50 nM.
With `COc1cc2c(Nc3ccc(Cl)c(Cl)c3)ncnc2cc1OCc1nc(CN2CCN(C)CC2)cs1` [Example 207, N-(3,4-dichlorophenyl)-6-(methyloxy)-7-[({4-[(4-methylpiperazin-1-yl)methyl]-1,3-thiazol-2-yl}methyl)oxy]quinazolin-4-amine], the 50% inhibitory concentration (IC50) on ErbB2 is less than 50 nM; on EphA2 (read-out: EphA2 IC50) it was 50 to 1000 nM; at EphB4 it was less than 50 nM; on EGFR (read-out: EGFR IC50), less than 50 nM.
Consider `COc1cc2c(Nc3ccc(Cl)c(Cl)c3)ncnc2cc1OCc1nc(CN2CCCN(C)CC2)cs1` [Example 210, N-(3,4-dichlorophenyl)-7-[({4-[(4-methyl-1,4-diazepan-1-yl)methyl]-1,3-thiazol-2-yl}methyl)oxy]-6-(methyloxy)quinazolin-4-amine], for which the IC50 on EphA2 (read-out: EphA2 IC50), at KDR (read-out: KDR IC50), at EphB4 and on EGFR (read-out: EGFR IC50) was less than 50 nM each time.
Regarding `COc1cc2c(Nc3ccc(Cl)c(Cl)c3)ncnc2cc1OCc1nc(N2CCN(C(=O)OC(C)(C)C)CC2)no1` [Example 215, 1,1-dimethylethyl 4-[5-({[4-[(3,4-dichlorophenyl)amino]-6-(methyloxy)quinazolin-7-yl]oxy}methyl)-1,2,4-oxadiazol-3-yl]piperazine-1-carboxylate], the IC50 was less than 50 nM on ErbB2, 50 to 1000 nM on EphA2 (read-out: EphA2 IC50), less than 50 nM at EphB4 and less than 50 nM at EGFR (read-out: EGFR IC50).
As for `COc1cc2c(Nc3ccc(Cl)c(Cl)c3)ncnc2cc1OCc1nc(N2CCN(C)CC2)no1` [Example 218, N-(3,4-dichlorophenyl)-6-(methyloxy)-7-({[3-(4-methylpiperazin-1-yl)-1,2,4-oxadiazol-5-yl]methyl}oxy)quinazolin-4-amine], the IC50 was 50 to 1000 nM on EphA2 (read-out: EphA2 IC50), less than 50 nM on KDR (read-out: KDR IC50), less than 50 nM against EphB4 and less than 50 nM at EGFR (read-out: EGFR IC50).
Regarding `COc1cc2c(Nc3ccc(Cl)c(Cl)c3)ncnc2cc1OCc1cc(Br)cc(Br)c1` [Example 232, 7-{[(3,5-dibromophenyl)methyl]oxy}-N-(3,4-dichlorophenyl)-6-(methyloxy)quinazolin-4-amine], the IC50 was 50 to 1000 nM at EphA2 (read-out: EphA2 IC50), less than 50 nM on KDR (read-out: KDR IC50), 50 to 1000 nM at EphB4 and less than 50 nM at EGFR (read-out: EGFR IC50).
In the case of `COc1cc2c(Nc3ccc(Cl)c(Cl)c3)ncnc2cc1OCc1noc(-c2ccccc2)n1` [Example 235, N-(3,4-dichlorophenyl)-6-(methyloxy)-7-{[(5-phenyl-1,2,4-oxadiazol-3-yl)methyl]oxy}quinazolin-4-amine], the 50% inhibitory concentration (IC50) is 50 to 1000 nM on EphA2 (read-out: EphA2 IC50), less than 50 nM on KDR (read-out: KDR IC50), less than 50 nM against EphB4 and less than 50 nM on EGFR (read-out: EGFR IC50).
As to `CCN1CCCC(c2nc(COc3cc4ncnc(Nc5ccc(Cl)c(Cl)c5)c4cc3OC)no2)C1` (stereo not drawn) [Example 239, N-(3,4-dichlorophenyl)-7-({[5-(1-ethylpiperidin-3-yl)-1,2,4-oxadiazol-3-yl]methyl}oxy)-6-(methyloxy)quinazolin-4-amine], the IC50 is 50 to 1000 nM at EphA2 (read-out: EphA2 IC50), less than 50 nM at KDR (read-out: KDR IC50), 50 to 1000 nM at EphB4 and less than 50 nM on EGFR (read-out: EGFR IC50).
In the case of `CCN1CCC(c2nc(COc3cc4ncnc(Nc5ccc(Cl)c(Cl)c5)c4cc3OC)cs2)CC1` [Example 242, N-(3,4-dichlorophenyl)-7-({[2-(1-ethylpiperidin-4-yl)-1,3-thiazol-4-yl]methyl}oxy)-6-(methyloxy)quinazolin-4-amine], the IC50 on EphA2 (read-out: EphA2 IC50), at KDR (read-out: KDR IC50), at EphB4 and at EGFR (read-out: EGFR IC50) was less than 50 nM each time.
For “N-(3,4-dichlorophenyl)-7-({[2-(1-ethylpiperidin-4-yl)-1,3-thiazol-4-yl]methyl}oxy)-6-(methyloxy)quinazolin-4-amine hydrochloride [Example 37]”, the IC50 was less than 50 nM against ErbB2, less than 50 nM at EphA2 (read-out: EphA2 IC50), 50 to 1000 nM against EphB4 and less than 50 nM on EGFR (read-out: EGFR IC50).
